Results taken from ChEMBL document CHEMBL1201862, “PubChem BioAssay data set” (2004).
Activity calls are given as the source filed them.

Tests used:
Hexokinase HKDC1 = biological target: T1, Hexokinase HKDC1 (Homo sapiens, UniProt Q2TB90); assay: inhibition of HKDC1 glucose phosphorylation – biochemical, W721R variant, dose response (AID 504729); assay type: functional
T1 sequence (Q2TB90 whole entry): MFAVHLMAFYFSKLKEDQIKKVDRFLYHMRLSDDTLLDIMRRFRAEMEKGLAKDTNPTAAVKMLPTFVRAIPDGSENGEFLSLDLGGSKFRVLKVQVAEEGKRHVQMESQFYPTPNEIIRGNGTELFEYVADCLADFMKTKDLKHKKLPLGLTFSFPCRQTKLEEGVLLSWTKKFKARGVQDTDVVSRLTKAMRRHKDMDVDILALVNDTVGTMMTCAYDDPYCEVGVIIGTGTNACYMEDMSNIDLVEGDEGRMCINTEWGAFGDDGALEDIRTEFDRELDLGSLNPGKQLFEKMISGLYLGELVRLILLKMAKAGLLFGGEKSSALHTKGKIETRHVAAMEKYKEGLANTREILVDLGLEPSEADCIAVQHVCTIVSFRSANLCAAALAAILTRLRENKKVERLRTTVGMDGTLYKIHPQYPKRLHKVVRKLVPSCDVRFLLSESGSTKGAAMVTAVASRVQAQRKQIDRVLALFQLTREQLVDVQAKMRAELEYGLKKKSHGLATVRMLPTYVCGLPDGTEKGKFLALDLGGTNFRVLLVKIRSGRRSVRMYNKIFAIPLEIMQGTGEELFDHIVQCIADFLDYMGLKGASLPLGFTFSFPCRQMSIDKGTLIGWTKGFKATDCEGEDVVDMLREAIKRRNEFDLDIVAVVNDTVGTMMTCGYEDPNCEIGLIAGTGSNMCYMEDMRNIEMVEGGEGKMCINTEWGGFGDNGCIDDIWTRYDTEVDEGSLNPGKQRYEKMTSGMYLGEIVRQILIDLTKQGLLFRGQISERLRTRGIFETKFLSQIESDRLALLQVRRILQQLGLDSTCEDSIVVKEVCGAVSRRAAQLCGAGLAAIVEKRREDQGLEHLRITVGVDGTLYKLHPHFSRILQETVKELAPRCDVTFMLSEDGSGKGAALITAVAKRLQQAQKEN

Estrogen receptor = biological target: T2, Estrogen receptor (Homo sapiens, UniProt P03372);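 also: potency for inhibiting coactivator peptide recruitment to the receptor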
T2 sequence (P03372 whole entry): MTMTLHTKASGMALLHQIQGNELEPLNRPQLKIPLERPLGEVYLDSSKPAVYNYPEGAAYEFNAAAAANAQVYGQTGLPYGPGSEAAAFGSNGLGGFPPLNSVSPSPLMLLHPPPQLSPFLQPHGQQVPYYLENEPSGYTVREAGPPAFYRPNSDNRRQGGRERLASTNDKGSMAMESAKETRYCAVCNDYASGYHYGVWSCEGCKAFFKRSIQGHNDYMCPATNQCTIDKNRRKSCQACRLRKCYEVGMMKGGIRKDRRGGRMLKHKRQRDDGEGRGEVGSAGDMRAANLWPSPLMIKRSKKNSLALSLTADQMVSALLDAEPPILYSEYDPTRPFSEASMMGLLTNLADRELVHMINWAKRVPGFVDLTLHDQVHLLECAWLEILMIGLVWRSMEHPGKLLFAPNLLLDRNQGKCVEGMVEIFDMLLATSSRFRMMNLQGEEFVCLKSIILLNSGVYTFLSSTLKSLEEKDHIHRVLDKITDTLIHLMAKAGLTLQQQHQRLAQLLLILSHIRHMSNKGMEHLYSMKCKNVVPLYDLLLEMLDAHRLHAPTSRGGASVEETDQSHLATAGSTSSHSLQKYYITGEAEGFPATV

Estrogen receptor beta = Estrogen receptor beta (Homo sapiens, UniProt Q92731);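 also: recombinant ER-beta bound to coactivator SRC1 peptide in presence of estradiol agonist; inhibitors block coactivator peptide binding and lower the FRET signal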
Chain of Estrogen receptor beta (Q92731 whole entry): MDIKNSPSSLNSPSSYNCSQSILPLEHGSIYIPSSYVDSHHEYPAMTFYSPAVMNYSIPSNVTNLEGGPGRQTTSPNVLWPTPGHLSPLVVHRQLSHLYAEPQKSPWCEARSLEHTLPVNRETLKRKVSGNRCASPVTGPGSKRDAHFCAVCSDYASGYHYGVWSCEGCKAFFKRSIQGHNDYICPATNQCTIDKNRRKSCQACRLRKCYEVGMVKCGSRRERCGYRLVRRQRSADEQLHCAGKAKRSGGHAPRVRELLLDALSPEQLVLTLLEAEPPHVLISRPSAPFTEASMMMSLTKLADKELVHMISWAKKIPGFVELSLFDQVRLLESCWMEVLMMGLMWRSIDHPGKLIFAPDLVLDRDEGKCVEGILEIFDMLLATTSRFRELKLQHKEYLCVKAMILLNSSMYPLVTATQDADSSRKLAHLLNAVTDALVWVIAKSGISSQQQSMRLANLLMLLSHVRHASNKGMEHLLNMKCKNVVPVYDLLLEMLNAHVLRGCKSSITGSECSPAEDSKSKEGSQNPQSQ

[1] = viability of PTEN-deleted HCT116 cells – cell-based, HCT116 PTEN knockout, dose response (AID 1047); assay type: functional;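 also: HCT116 colon tumor cells with PTEN knocked out; cells exposed to compound for 60 hours before readout; potency for loss of cell viability measured by luminescence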
[2] = viability of HCT116 lacking mutant beta-catenin – cell-based, human colon tumor, dose response (AID 1045); assay type: functional;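 also: HCT116 colon tumor cells with beta catenin knocked out; cells exposed to compound for 60 hours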
[3] = THP-1 cell cytotoxicity, dose response, cytotoxicity control for non-replicating M. tuberculosis project (AID 489025); assay type: functional
[4] = HepG2 cell cytotoxicity, dose response, cytotoxicity control for non-replicating M. tuberculosis project (AID 489018); assay type: functional; settings: Mycobacterium tuberculosis
[5] = Vero E6 cell cytotoxicity, dose response, cytotoxicity control for non-replicating M. tuberculosis project, secondary assay (AID 492998); assay type: functional, VeroE6; settings: Vero C1008
cells = assay type: functional
[6] = A cytotoxicity screen of small molecule inhibitors of the PhoP region in Salmonella typhi identified in the primary screen. [Related pubchem assays: 1850, 1864, 1985 ]; assay type: functional
[7] = biological target: Glyceraldehyde-3-phosphate dehydrogenase (Homo sapiens, UniProt P04406)
Chain of Glyceraldehyde-3-phosphate dehydrogenase (P04406 whole entry): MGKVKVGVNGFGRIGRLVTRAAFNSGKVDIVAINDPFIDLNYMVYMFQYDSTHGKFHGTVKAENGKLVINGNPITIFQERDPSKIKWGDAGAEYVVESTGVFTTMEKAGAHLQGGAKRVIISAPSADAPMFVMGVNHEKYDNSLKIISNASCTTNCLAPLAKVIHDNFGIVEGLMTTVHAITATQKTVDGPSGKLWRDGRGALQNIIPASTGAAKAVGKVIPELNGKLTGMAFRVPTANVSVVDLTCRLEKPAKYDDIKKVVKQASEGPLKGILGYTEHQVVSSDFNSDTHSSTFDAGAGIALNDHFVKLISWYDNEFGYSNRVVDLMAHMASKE

[8] = biological target: Alkaline phosphatase, placental type (Homo sapiens, UniProt P05187); assay: human placental alkaline phosphatase inhibition – biochemical, luminescence, confirmation (AID 1512); assay type: functional
Chain of Alkaline phosphatase, placental type (P05187 whole entry): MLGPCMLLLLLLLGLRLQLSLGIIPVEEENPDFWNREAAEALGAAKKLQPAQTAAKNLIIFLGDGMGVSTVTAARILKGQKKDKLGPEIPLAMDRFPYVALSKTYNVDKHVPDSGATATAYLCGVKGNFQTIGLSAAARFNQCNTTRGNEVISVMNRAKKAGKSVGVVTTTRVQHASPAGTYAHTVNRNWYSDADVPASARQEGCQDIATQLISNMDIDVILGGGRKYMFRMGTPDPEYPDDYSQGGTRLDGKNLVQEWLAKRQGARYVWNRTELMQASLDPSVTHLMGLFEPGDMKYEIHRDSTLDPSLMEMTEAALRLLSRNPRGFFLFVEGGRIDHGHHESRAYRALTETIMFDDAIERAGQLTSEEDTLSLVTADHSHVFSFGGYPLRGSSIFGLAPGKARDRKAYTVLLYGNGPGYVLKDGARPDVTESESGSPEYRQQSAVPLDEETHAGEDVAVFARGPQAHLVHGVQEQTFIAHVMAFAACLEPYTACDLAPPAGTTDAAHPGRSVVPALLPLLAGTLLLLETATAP

[9] = biological target: T3, Alkaline phosphatase, tissue-nonspecific isozyme (Homo sapiens, UniProt P05186); assay: potency against alkaline phosphatase TNAP – biochemical, luminescent, dose response, SAR follow-up (AID 1056)
T3 sequence (P05186 whole entry): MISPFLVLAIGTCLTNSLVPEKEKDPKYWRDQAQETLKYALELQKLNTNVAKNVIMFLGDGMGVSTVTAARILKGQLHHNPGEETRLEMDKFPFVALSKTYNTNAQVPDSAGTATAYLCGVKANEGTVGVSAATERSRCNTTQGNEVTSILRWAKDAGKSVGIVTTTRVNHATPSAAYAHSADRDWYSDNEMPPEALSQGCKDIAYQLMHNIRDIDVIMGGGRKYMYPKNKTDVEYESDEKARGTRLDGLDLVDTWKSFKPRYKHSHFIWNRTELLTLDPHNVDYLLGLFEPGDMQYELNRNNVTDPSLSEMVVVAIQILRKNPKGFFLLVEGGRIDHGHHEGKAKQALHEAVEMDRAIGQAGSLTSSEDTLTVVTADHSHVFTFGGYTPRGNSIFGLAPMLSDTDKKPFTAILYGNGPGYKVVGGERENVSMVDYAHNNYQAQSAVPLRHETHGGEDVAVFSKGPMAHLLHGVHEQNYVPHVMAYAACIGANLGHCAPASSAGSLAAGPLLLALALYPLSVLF

[10] = biological target: T4, Replicative DNA helicase DnaB (Mycobacterium tuberculosis, UniProt P9WMR3); assay: DnaB intein splicing inhibitors, dose response, biochemical, cell-free fluorescence (AID 449749); assay type: functional
T4 sequence (P9WMR3 whole entry): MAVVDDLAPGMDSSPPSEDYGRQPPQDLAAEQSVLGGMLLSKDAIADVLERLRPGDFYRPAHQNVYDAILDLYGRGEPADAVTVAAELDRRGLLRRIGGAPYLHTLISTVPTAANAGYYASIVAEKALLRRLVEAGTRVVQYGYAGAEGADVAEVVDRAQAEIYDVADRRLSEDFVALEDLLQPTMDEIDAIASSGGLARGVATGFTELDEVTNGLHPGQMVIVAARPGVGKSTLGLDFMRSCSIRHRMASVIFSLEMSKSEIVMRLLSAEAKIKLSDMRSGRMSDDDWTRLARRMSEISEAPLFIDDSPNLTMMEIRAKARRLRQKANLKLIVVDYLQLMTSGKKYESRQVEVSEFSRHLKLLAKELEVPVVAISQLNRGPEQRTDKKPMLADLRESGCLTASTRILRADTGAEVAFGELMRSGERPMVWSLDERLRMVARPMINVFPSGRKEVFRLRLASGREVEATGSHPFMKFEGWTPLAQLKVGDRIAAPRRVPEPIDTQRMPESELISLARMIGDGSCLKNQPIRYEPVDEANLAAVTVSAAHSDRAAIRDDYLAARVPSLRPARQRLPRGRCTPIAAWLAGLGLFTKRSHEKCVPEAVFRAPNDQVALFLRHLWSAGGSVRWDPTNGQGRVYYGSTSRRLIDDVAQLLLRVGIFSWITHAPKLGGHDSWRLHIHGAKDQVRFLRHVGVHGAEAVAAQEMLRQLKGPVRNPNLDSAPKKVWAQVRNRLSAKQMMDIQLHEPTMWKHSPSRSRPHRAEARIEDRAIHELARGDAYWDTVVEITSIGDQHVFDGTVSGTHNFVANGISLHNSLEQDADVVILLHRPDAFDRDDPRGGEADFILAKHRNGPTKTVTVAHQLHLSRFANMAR

Protein RecA = biological target: T5, Protein RecA (Mycobacterium tuberculosis, UniProt P9WHJ3); assay: Fluorescence Cell-Free Homogeneous Dose Retest to Identify Inhibitors of RecA-Intein Splicing Activity. [Related pubchem assays (depositor defined):AID2097, AID2223, AID489010, AID492950]; assay type: functional
T5 sequence (P9WHJ3 whole entry): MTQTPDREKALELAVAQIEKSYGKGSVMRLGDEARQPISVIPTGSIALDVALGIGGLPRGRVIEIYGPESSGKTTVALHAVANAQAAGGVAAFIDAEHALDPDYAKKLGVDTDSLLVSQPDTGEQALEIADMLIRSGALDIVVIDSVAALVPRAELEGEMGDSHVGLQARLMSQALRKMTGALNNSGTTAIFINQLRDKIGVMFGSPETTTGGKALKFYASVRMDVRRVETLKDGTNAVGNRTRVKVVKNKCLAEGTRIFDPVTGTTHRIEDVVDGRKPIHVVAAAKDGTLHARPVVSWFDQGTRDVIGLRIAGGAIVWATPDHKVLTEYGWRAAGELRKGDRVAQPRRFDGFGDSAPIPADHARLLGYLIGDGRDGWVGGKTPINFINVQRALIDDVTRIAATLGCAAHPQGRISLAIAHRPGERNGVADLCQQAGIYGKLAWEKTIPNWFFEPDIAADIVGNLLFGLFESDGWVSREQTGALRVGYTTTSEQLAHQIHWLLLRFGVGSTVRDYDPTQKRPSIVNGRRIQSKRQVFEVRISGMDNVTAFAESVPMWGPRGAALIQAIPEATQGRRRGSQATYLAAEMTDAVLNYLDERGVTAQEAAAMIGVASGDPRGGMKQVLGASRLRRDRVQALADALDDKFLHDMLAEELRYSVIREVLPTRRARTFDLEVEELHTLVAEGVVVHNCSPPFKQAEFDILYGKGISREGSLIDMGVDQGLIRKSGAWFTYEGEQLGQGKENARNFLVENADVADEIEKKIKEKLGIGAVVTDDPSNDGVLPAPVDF

Wee1-like protein kinase = Wee1-like protein kinase (Homo sapiens, UniProt P30291); assay: HeLa cell cycle G2/M accumulation – FACS, mechanism study for Wee1 degradation inhibitor project, late-stage follow-up, panel member Wee1 Degradation (AID 2088)
Chain of Wee1-like protein kinase (P30291 whole entry): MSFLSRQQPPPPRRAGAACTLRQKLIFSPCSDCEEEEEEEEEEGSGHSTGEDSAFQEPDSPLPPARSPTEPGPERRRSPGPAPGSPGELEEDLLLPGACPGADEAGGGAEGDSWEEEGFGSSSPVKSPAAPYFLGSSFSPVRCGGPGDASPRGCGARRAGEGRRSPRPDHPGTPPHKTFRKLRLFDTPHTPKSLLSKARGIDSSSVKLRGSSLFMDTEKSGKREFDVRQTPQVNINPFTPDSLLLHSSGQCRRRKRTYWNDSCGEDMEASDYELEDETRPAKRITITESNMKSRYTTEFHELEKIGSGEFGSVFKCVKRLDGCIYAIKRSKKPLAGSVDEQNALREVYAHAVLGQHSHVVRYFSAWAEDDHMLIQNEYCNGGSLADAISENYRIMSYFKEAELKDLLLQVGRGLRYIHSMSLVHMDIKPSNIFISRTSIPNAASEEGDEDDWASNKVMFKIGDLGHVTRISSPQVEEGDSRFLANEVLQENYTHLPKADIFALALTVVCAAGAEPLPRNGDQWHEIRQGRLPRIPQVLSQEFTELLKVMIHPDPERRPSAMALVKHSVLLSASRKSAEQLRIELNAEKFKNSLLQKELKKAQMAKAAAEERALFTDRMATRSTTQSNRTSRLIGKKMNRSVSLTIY

[11] = biological target: G2/mitotic-specific cyclin-B1 (Homo sapiens, UniProt P14635); assay: HeLa cell cycle G2/M accumulation – FACS, mechanism study for Wee1 degradation inhibitor project, late-stage follow-up, panel member Cyclin B Degradation (AID 2088)
Chain of G2/mitotic-specific cyclin-B1 (P14635 whole entry): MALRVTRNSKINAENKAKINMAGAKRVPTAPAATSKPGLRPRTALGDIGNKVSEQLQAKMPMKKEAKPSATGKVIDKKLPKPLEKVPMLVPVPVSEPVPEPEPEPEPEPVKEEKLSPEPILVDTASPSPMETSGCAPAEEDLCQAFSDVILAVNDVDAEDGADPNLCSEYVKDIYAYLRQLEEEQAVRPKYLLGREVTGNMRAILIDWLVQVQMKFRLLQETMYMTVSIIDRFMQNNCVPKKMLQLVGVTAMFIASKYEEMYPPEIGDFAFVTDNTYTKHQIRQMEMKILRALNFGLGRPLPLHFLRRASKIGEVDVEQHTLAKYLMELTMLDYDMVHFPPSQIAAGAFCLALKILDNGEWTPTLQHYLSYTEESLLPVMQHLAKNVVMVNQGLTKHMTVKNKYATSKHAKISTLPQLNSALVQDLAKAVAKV

SMILES: Cc1nc2c(c(=O)c3ccccc3n2C)c(=O)n1-c1ccc(F)cc1
- IC50 (Hexokinase HKDC1): 8.25 µM (active)

SMILES: CCOC(=O)c1c(C)oc2c1c(C(c1cccnc1)N1CCCCC1)c(O)c1ccccc12 (stereo not drawn)
- IC50 (Estrogen receptor): > 50 µM (not active)
- IC50 (Estrogen receptor beta): > 50 µM (not active)

SMILES: CCOc1cc(CNC(C)(C)CO)cc(Br)c1OCc1ccc(Cl)cc1Cl
- EC50 [1]: 7.54 µM (active)
- EC50 [2]: 6.52 µM (active)
- CC50 [3]: 13.4 µM (active)
- CC50 [4]: 13.7 µM (active)
- CC50 [5]: 7.44 µM (active)
- IC50 (cells): 10.5 µM (active)

SMILES: COc1ccc2nc(NC(=O)C3CC(=O)N(c4ccccc4)C3)sc2c1 (stereo not drawn)
- EC50 [6]: > 50 µM (active)

SMILES: COc1ccccc1-c1nnc(SC)[nH]1
- IC50 [7]: > 100 µM (not active)
- IC50 [8]: > 100 µM (inactive)
- IC50 [9]: 7.95 µM (active)

SMILES: CN1CCc2nc(SCC(=O)Nc3ccc(F)cc3)c(C#N)cc2C1
- IC50 (Estrogen receptor): > 50 µM (not active)
- AC50 [10]: > 380 µM (inactive)
- EC50 (Protein RecA): 38 µM (active)

SMILES: Cc1ccc(NC(=O)OCc2cccs2)cc1
- EC50 [6]: > 50 µM (active)

SMILES: OCCSc1n[nH]c(-c2ccccc2)n1
- IC50 [7]: > 100 µM (not active)
- IC50 [8]: > 100 µM (inactive)
- IC50 [9]: 16.2 µM (active)

SMILES: Cc1cc(C)n2cc(CSc3nnc(-c4ccccc4)c(-c4ccccc4)n3)nc2n1
- IC50 (Hexokinase HKDC1): 12.5 µM (active)

SMILES: [O-][n+]1onc2c3cc(-c4ccccc4)[nH]c3ccc21
- EC50 (Wee1-like protein kinase): > 6.19 µM (active)
- EC50 [11]: > 55.7 µM (inactive)

SMILES: Cc1cc(O)nc(-n2nc(C)cc2NC(=O)Cc2ccccc2)n1
- EC50 (Wee1-like protein kinase): > 49.7 µM (inactive)
- EC50 [11]: > 49.7 µM (inactive)

SMILES: Cc1cc(O)nc(-n2nc(C)cc2NC(=O)c2cccc(Cl)c2)n1
- EC50 (Wee1-like protein kinase): > 49.7 µM (inactive)
- EC50 [11]: > 49.7 µM (inactive)

SMILES: CC1(C)N=C(N)N=C(Nc2cccc(Br)c2)N1
- EC50 [6]: > 50 µM (active)
